Assay results taken from ChEMBL document CHEMBL1147635, “KMI-358 and KMI-370, highly potent and small-sized BACE1 inhibitors containing phenylnorstatine” (Bioorg Med Chem Lett, 2004).
*1 amine or outer side, *2 acyl side, *3 side chain or, on linkers, in order; H or OH if unused. Where a SMILES comes first, the peptide text is derived from it. [ ]: non-standard residue; d: D form. β3hPhe(2R-OH) = O=C([C@H](O)[C@H](Cc1ccccc1)N[*:1])[*:2]; Dap = NC[C@H](N)C(=O)O; CO = O=C([*:1])[*:2]

Target: T1, Beta-secretase 1 (Homo sapiens, UniProt P56817)
Assay: Inhibitory concentration of compound against Beta-secretase 1 was evaluated

T1 sequence (P56817 whole entry): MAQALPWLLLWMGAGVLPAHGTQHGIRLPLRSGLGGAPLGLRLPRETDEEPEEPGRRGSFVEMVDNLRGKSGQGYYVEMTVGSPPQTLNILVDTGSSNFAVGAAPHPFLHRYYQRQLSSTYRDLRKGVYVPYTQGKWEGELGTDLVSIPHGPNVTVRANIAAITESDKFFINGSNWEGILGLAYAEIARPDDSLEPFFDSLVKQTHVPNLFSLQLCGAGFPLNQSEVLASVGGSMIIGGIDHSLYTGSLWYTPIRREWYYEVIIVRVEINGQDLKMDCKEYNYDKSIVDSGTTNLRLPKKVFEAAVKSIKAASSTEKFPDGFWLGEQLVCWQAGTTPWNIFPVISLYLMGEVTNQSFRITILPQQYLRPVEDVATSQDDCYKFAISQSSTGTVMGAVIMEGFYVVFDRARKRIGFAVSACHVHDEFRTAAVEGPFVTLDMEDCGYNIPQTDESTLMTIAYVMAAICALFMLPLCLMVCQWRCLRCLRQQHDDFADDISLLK

| IC50 [nM] | Structure (SMILES) |
| --- | --- |
| 55 | CC(C)C[C@H](NC(=O)[C@@H](NC(=O)[C@@H](N)CCC(=O)O)C(C)C)C(=O)N[C@@H](Cc1ccccc1)[C@@H](O)C(=O)Nc1cc(C(=O)O)cc(C(=O)O)c1 |
| 84 | CC(C)C[C@H](NC(=O)[C@@H](NC(=O)[C@@H](N)CNC(=O)O)C(C)C)C(=O)N[C@@H](Cc1ccccc1)[C@@H](O)C(=O)N[C@@H](CC(=O)O)C(=O)N[C@@H](C)C(=O)N[C@@H](CCC(=O)O)C(=O)O (H-[Dap](CO)VL[β3hPhe(2R-OH)]DAE-OH) |
| 16 | CC(C)C[C@H](NC(=O)[C@@H](NC(=O)[C@@H](N)CNC(=O)O)C(C)C)C(=O)N[C@@H](Cc1ccccc1)[C@@H](O)C(=O)Nc1cccc(C(=O)O)c1 |
| 3.4 | CC(C)C[C@H](NC(=O)[C@@H](NC(=O)[C@@H](N)CNC(=O)O)C(C)C)C(=O)N[C@@H](Cc1ccccc1)[C@@H](O)C(=O)Nc1cc(C(=O)O)cc(C(=O)O)c1 |

Target: T1, Beta-secretase 1
Assay: Inhibition of Beta-secretase 1 at 2 uM concentration

| Structure (SMILES) | inhibition [%] |
| --- | --- |
| CC(C)C[C@H](NC(=O)[C@@H](NC(=O)[C@@H](N)CCC(=O)O)C(C)C)C(=O)N[C@@H](Cc1ccccc1)[C@@H](O)C(=O)NCc1cccc(C(=O)O)c1 | 64 |
| CC(C)C[C@H](NC(=O)[C@@H](NC(=O)[C@@H](N)CCC(=O)O)C(C)C)C(=O)N[C@@H](Cc1ccccc1)[C@@H](O)C(=O)N[C@@H](CC(=O)O)C(=O)O (HELM PEPTIDE1{E.V.L.[O=C([C@H](O)[C@H](Cc1ccccc1)N[*:1])[*:2]].D}$$$$V2.0) | 61 |
| CC(C)C[C@H](NC(=O)[C@@H](NC(=O)[C@@H](N)CCC(=O)O)C(C)C)C(=O)N[C@@H](Cc1ccccc1)[C@@H](O)C(=O)O (mixture of isomers) | 34 |
| CC(C)C[C@H](NC(=O)[C@@H](NC(=O)CCCC(=O)O)C(C)C)C(=O)N[C@@H](Cc1ccccc1)[C@@H](O)C(=O)N[C@@H](CC(=O)O)C(=O)N[C@@H](C)C(=O)N[C@@H](CCC(=O)O)C(=O)O (HELM PEPTIDE1{[O=C(O)CCCC(=O)[*:2]].V.L.[O=C([C@H](O)[C@H](Cc1ccccc1)N[*:1])[*:2]].D.A.E}$$$$V2.0) | < 20 |
| CC(C)C[C@H](NC(=O)[C@@H](NC(=O)[C@@H](N)CCC(=O)O)C(C)C)C(=O)N[C@@H](Cc1ccccc1)[C@@H](O)C(=O)NCC(=O)N[C@@H](C)C(=O)N[C@@H](CCC(=O)O)C(=O)N[C@@H](Cc1ccccc1)C(=O)O (HELM PEPTIDE1{E.V.L.[O=C([C@H](O)[C@H](Cc1ccccc1)N[*:1])[*:2]].G.A.E.F}$$$$V2.0) | 54 |
| CC(C)C[C@H](NC(=O)CNC(=O)[C@@H](N)CCC(=O)O)C(=O)N[C@@H](Cc1ccccc1)C(O)C(=O)N[C@@H](CC(=O)O)C(=O)NC(C)C(=O)N[C@@H](CCC(=O)O)C(=O)N[C@@H](Cc1ccccc1)C(=O)O (single isomer, unassigned) | < 20 |
| CC(C)C[C@H](NC(=O)[C@@H](NC(=O)[C@@H](N)CCC(=O)O)C(C)C)C(=O)N[C@@H](Cc1ccccc1)[C@@H](O)C(=O)N[C@@H](CC(=O)O)C(=O)N[C@@H](C)C(=O)N[C@@H](CCC(=O)O)C(=O)O (HELM PEPTIDE1{E.V.L.[O=C([C@H](O)[C@H](Cc1ccccc1)N[*:1])[*:2]].D.A.E}$$$$V2.0) | 60 |
| CC(C)C[C@H](NC(=O)[C@@H](N)C(C)C)C(=O)N[C@@H](Cc1ccccc1)[C@@H](O)C(=O)N[C@@H](CC(=O)O)C(=O)N[C@@H](C)C(=O)N[C@@H](CCC(=O)O)C(=O)N[C@@H](Cc1ccccc1)C(=O)O (HELM PEPTIDE1{V.L.[O=C([C@H](O)[C@H](Cc1ccccc1)N[*:1])[*:2]].D.A.E.F}$$$$V2.0) | < 20 |
| CC(C)C[C@H](NC(=O)[C@@H](NC(=O)[C@@H](N)CCC(=O)O)C(C)C)C(=O)N[C@@H](Cc1ccccc1)[C@@H](O)C(=O)NCc1ccccc1 | 30 |
| CC(C)C[C@H](NC(=O)[C@@H](NC(=O)[C@@H](N)CCC(=O)O)C(C)C)C(=O)N[C@@H](Cc1ccccc1)[C@@H](O)C(=O)Nc1cccc(C(=O)O)c1 (mixture of isomers) | 82 |
| CC(C)C[C@H](NC(=O)[C@@H](NC(=O)[C@@H](N)CCC(=O)O)C(C)C)C(=O)N[C@@H](Cc1ccccc1)[C@@H](O)C(=O)NCc1ccc(C(=O)O)cc1 | 52 |
| CC(C)C[C@H](NC(=O)[C@@H](NC(=O)[C@@H](N)CC(=O)O)C(C)C)C(=O)N[C@@H](Cc1ccccc1)[C@@H](O)C(=O)N[C@@H](CC(=O)O)C(=O)N[C@@H](C)C(=O)N[C@@H](CCC(=O)O)C(=O)O (HELM PEPTIDE1{D.V.L.[O=C([C@H](O)[C@H](Cc1ccccc1)N[*:1])[*:2]].D.A.E}$$$$V2.0) | < 20 |
| CC(C)C[C@H](NC(=O)[C@@H](NC(=O)CN)C(C)C)C(=O)N[C@@H](Cc1ccccc1)[C@@H](O)C(=O)N[C@@H](CC(=O)O)C(=O)N[C@@H](C)C(=O)N[C@@H](CCC(=O)O)C(=O)N[C@@H](Cc1ccccc1)C(=O)O (HELM PEPTIDE1{G.V.L.[O=C([C@H](O)[C@H](Cc1ccccc1)N[*:1])[*:2]].D.A.E.F}$$$$V2.0) | < 20 |
| CC(C)C[C@H](NC(=O)[C@@H](NC(=O)[C@@H](N)CNC(=O)O)C(C)C)C(=O)N[C@@H](Cc1ccccc1)[C@@H](O)C(=O)N[C@@H](CC(=O)O)C(=O)N[C@@H](C)C(=O)N[C@@H](CCC(=O)O)C(=O)O (H-[Dap](CO)VL[β3hPhe(2R-OH)]DAE-OH) | > 90 |
| CC(C)C[C@H](NC(=O)[C@@H](NC(=O)[C@@H](N)CCC(=O)O)C(C)C)C(=O)N[C@@H](Cc1ccccc1)[C@@H](O)C(=O)N[C@@H](CC(=O)O)C(=O)N[C@@H](C)C(=O)N[C@@H](CCC(=O)O)C(=O)N[C@@H](Cc1ccccc1)C(=O)O (HELM PEPTIDE1{E.V.L.[O=C([C@H](O)[C@H](Cc1ccccc1)N[*:1])[*:2]].D.A.E.F}$$$$V2.0) | < 90 |

The next lines start with the values.

| inhibition [%] | Structure (SMILES) |
| --- | --- |
| 56 | CC(C)C[C@H](NC(=O)[C@@H](NC(=O)[C@@H](N)CCC(=O)O)C(C)C)C(=O)N[C@@H](Cc1ccccc1)[C@@H](O)C(=O)N[C@@H](CC(=O)O)C(=O)NC(C)C(=O)NCC(=O)N[C@@H](Cc1ccccc1)C(=O)O (single isomer, unassigned) |
| > 90 | CC(C)C[C@H](NC(=O)[C@@H](NC(=O)[C@@H](N)CCC(=O)O)C(C)C)C(=O)N[C@@H](Cc1ccccc1)[C@@H](O)C(=O)Nc1cc(C(=O)O)cc(C(=O)O)c1 |
| < 20 | CC(C)C[C@H](N)C(=O)N[C@@H](Cc1ccccc1)[C@@H](O)C(=O)N[C@@H](CC(=O)O)C(=O)N[C@@H](C)C(=O)N[C@@H](CCC(=O)O)C(=O)N[C@@H](Cc1ccccc1)C(=O)O (HELM PEPTIDE1{L.[O=C([C@H](O)[C@H](Cc1ccccc1)N[*:1])[*:2]].D.A.E.F}$$$$V2.0) |
| < 20 | C[C@H](NC(=O)[C@H](CC(=O)O)NC(=O)[C@H](O)[C@@H](N)Cc1ccccc1)C(=O)N[C@@H](CCC(=O)O)C(=O)N[C@@H](Cc1ccccc1)C(=O)O (HELM PEPTIDE1{[N[C@@H](Cc1ccccc1)[C@@H](O)C(=O)[*:2]].D.A.E.F}$$$$V2.0) |
| 79 | CC(C)C[C@H](NC(=O)[C@@H](NC(=O)[C@@H](N)CCC(=O)O)C(C)C)C(=O)N[C@@H](Cc1ccccc1)[C@@H](O)C(=O)Nc1ccc(C(=O)O)cc1 |
| < 20 | CC(C)[C@H](NC(=O)[C@@H](N)CCC(=O)O)C(=O)NCC(=O)N[C@@H](Cc1ccccc1)[C@@H](O)C(=O)N[C@@H](CC(=O)O)C(=O)N[C@@H](C)C(=O)N[C@@H](CCC(=O)O)C(=O)N[C@@H](Cc1ccccc1)C(=O)O (HELM PEPTIDE1{E.V.G.[O=C([C@H](O)[C@H](Cc1ccccc1)N[*:1])[*:2]].D.A.E.F}$$$$V2.0) |
| < 20 | CC(C)C[C@H](NC(=O)[C@@H](NC(=O)[C@@H](N)CCC(N)=O)C(C)C)C(=O)N[C@@H](Cc1ccccc1)[C@@H](O)C(=O)N[C@@H](CC(=O)O)C(=O)N[C@@H](C)C(=O)N[C@@H](CCC(=O)O)C(=O)O (HELM PEPTIDE1{Q.V.L.[O=C([C@H](O)[C@H](Cc1ccccc1)N[*:1])[*:2]].D.A.E}$$$$V2.0) |
| 65 | CC(C)C[C@H](NC(=O)[C@@H](NC(=O)[C@@H](N)CCC(=O)O)C(C)C)C(=O)N[C@@H](Cc1ccccc1)[C@@H](O)C(=O)N[C@@H](CC(=O)O)C(=O)N[C@@H](C)C(=O)N[C@@H](CCC(=O)O)C(=O)NCC(=O)O (HELM PEPTIDE1{E.V.L.[O=C([C@H](O)[C@H](Cc1ccccc1)N[*:1])[*:2]].D.A.E.G}$$$$V2.0) |
| 73 | CC(C)C[C@H](NC(=O)[C@@H](NC(=O)[C@@H](N)CCC(=O)O)C(C)C)C(=O)N[C@@H](Cc1ccccc1)[C@@H](O)C(=O)N[C@@H](CC(=O)O)C(=O)NCC(=O)N[C@@H](CCC(=O)O)C(=O)N[C@@H](Cc1ccccc1)C(=O)O (HELM PEPTIDE1{E.V.L.[O=C([C@H](O)[C@H](Cc1ccccc1)N[*:1])[*:2]].D.G.E.F}$$$$V2.0) |
| 46 | CC(C)C[C@H](NC(=O)[C@@H](NC(=O)[C@@H](N)CCC(=O)O)C(C)C)C(=O)N[C@@H](Cc1ccccc1)[C@@H](O)C(=O)N[C@@H](CC(=O)O)C(=O)N[C@@H](C)C(=O)O (HELM PEPTIDE1{E.V.L.[O=C([C@H](O)[C@H](Cc1ccccc1)N[*:1])[*:2]].D.A}$$$$V2.0) |
| 43 | CC(C)C[C@H](NC(=O)[C@@H](NC(=O)[C@@H](N)CCCC(=O)O)C(C)C)C(=O)N[C@@H](Cc1ccccc1)[C@@H](O)C(=O)N[C@@H](CC(=O)O)C(=O)N[C@@H](C)C(=O)N[C@@H](CCC(=O)O)C(=O)O (HELM PEPTIDE1{[N[C@@H](CCCC(=O)O)C(=O)[*:2]].V.L.[O=C([C@H](O)[C@H](Cc1ccccc1)N[*:1])[*:2]].D.A.E}$$$$V2.0) |
